Measured values from the NIST ThermoML archive (doi:10.1021/je034087q).
Numbers after ± are expanded uncertainties.

Test: xn = mol fraction of the nth substance listed

CC(C)=O [acetone] + O=C=O
Details | mass density [kg/m3]
326.65 K, 9200 kPa, Fluid (supercritical or subcritical phases), x2 = 0.933 | 535 ± 3
326.65 K, 9240 kPa, Fluid (supercritical or subcritical phases), x2 = 0.933 | 540 ± 3
326.65 K, 9270 kPa, Fluid (supercritical or subcritical phases), x2 = 0.933 | 544 ± 3
326.65 K, 9310 kPa, Fluid (supercritical or subcritical phases), x2 = 0.933 | 549 ± 3
326.65 K, 9340 kPa, Fluid (supercritical or subcritical phases), x2 = 0.933 | 553 ± 3
326.65 K, 9370 kPa, Fluid (supercritical or subcritical phases), x2 = 0.933 | 559 ± 4
326.65 K, 9410 kPa, Fluid (supercritical or subcritical phases), x2 = 0.933 | 563 ± 4
326.65 K, 9460 kPa, Fluid (supercritical or subcritical phases), x2 = 0.933 | 569 ± 4
326.65 K, 9500 kPa, Fluid (supercritical or subcritical phases), x2 = 0.933 | 574 ± 4
326.65 K, 9550 kPa, Fluid (supercritical or subcritical phases), x2 = 0.933 | 579 ± 4
326.65 K, 9600 kPa, Fluid (supercritical or subcritical phases), x2 = 0.933 | 584 ± 4
326.65 K, 9660 kPa, Fluid (supercritical or subcritical phases), x2 = 0.933 | 590 ± 4
326.65 K, 9710 kPa, Fluid (supercritical or subcritical phases), x2 = 0.933 | 594 ± 4
326.65 K, 9790 kPa, Fluid (supercritical or subcritical phases), x2 = 0.933 | 601 ± 4
326.65 K, 9850 kPa, Fluid (supercritical or subcritical phases), x2 = 0.933 | 606 ± 4
326.65 K, 9930 kPa, Fluid (supercritical or subcritical phases), x2 = 0.933 | 612 ± 4
326.65 K, 10010 kPa, Fluid (supercritical or subcritical phases), x2 = 0.933 | 617 ± 4
326.65 K, 10110 kPa, Fluid (supercritical or subcritical phases), x2 = 0.933 | 625 ± 4
326.65 K, 10210 kPa, Fluid (supercritical or subcritical phases), x2 = 0.933 | 630 ± 4
326.65 K, 10340 kPa, Fluid (supercritical or subcritical phases), x2 = 0.933 | 637 ± 4
326.65 K, 10470 kPa, Fluid (supercritical or subcritical phases), x2 = 0.933 | 643 ± 4
326.65 K, 10590 kPa, Fluid (supercritical or subcritical phases), x2 = 0.933 | 650 ± 4
326.65 K, 10750 kPa, Fluid (supercritical or subcritical phases), x2 = 0.933 | 656 ± 4
326.65 K, 10920 kPa, Fluid (supercritical or subcritical phases), x2 = 0.933 | 663 ± 4
326.65 K, 11100 kPa, Fluid (supercritical or subcritical phases), x2 = 0.933 | 670 ± 4
326.65 K, 11320 kPa, Fluid (supercritical or subcritical phases), x2 = 0.933 | 677 ± 4
326.65 K, 11540 kPa, Fluid (supercritical or subcritical phases), x2 = 0.933 | 684 ± 4
326.65 K, 11800 kPa, Fluid (supercritical or subcritical phases), x2 = 0.933 | 691 ± 4
326.65 K, 12060 kPa, Fluid (supercritical or subcritical phases), x2 = 0.933 | 699 ± 4
326.65 K, 12380 kPa, Fluid (supercritical or subcritical phases), x2 = 0.933 | 708 ± 4
326.65 K, 12730 kPa, Fluid (supercritical or subcritical phases), x2 = 0.933 | 715 ± 4
326.65 K, 13140 kPa, Fluid (supercritical or subcritical phases), x2 = 0.933 | 723 ± 5
326.65 K, 13580 kPa, Fluid (supercritical or subcritical phases), x2 = 0.933 | 731 ± 5
326.65 K, 14060 kPa, Fluid (supercritical or subcritical phases), x2 = 0.933 | 741 ± 5
326.65 K, 14600 kPa, Fluid (supercritical or subcritical phases), x2 = 0.933 | 749 ± 5
328.15 K, 9370 kPa, Fluid (supercritical or subcritical phases), x2 = 0.902 | 632 ± 4
328.15 K, 9490 kPa, Fluid (supercritical or subcritical phases), x2 = 0.902 | 640 ± 4
328.15 K, 9620 kPa, Fluid (supercritical or subcritical phases), x2 = 0.902 | 645 ± 4
328.15 K, 9720 kPa, Fluid (supercritical or subcritical phases), x2 = 0.902 | 650 ± 4
328.15 K, 9780 kPa, Fluid (supercritical or subcritical phases), x2 = 0.902 | 654 ± 4
328.15 K, 9910 kPa, Fluid (supercritical or subcritical phases), x2 = 0.902 | 657 ± 4
328.15 K, 10020 kPa, Fluid (supercritical or subcritical phases), x2 = 0.902 | 662 ± 4
328.15 K, 10150 kPa, Fluid (supercritical or subcritical phases), x2 = 0.902 | 669 ± 4
328.15 K, 10330 kPa, Fluid (supercritical or subcritical phases), x2 = 0.902 | 673 ± 4
328.15 K, 10480 kPa, Fluid (supercritical or subcritical phases), x2 = 0.902 | 679 ± 4
328.15 K, 10610 kPa, Fluid (supercritical or subcritical phases), x2 = 0.902 | 684 ± 4
328.15 K, 10820 kPa, Fluid (supercritical or subcritical phases), x2 = 0.902 | 688 ± 4
328.15 K, 11020 kPa, Fluid (supercritical or subcritical phases), x2 = 0.902 | 695 ± 4
328.15 K, 11200 kPa, Fluid (supercritical or subcritical phases), x2 = 0.902 | 700 ± 4
328.15 K, 11440 kPa, Fluid (supercritical or subcritical phases), x2 = 0.902 | 705 ± 4
328.15 K, 11720 kPa, Fluid (supercritical or subcritical phases), x2 = 0.902 | 711 ± 4
328.15 K, 11920 kPa, Fluid (supercritical or subcritical phases), x2 = 0.902 | 716 ± 4
328.15 K, 12230 kPa, Fluid (supercritical or subcritical phases), x2 = 0.902 | 721 ± 5
328.15 K, 12460 kPa, Fluid (supercritical or subcritical phases), x2 = 0.902 | 727 ± 5
328.15 K, 12780 kPa, Fluid (supercritical or subcritical phases), x2 = 0.902 | 733 ± 5
328.15 K, 12970 kPa, Fluid (supercritical or subcritical phases), x2 = 0.902 | 737 ± 5
328.15 K, 13310 kPa, Fluid (supercritical or subcritical phases), x2 = 0.902 | 739 ± 5
328.15 K, 13640 kPa, Fluid (supercritical or subcritical phases), x2 = 0.902 | 748 ± 5
328.15 K, 13900 kPa, Fluid (supercritical or subcritical phases), x2 = 0.902 | 748 ± 5
328.15 K, 14180 kPa, Fluid (supercritical or subcritical phases), x2 = 0.902 | 754 ± 5
328.15 K, 14600 kPa, Fluid (supercritical or subcritical phases), x2 = 0.902 | 758 ± 5
328.15 K, 14820 kPa, Fluid (supercritical or subcritical phases), x2 = 0.902 | 761 ± 5
328.15 K, Liquid, Other PVT measurement, x2 = 0.902 | 626 ± 2
333.15 K, 9750 kPa, Fluid (supercritical or subcritical phases), x2 = 0.902 | 573 ± 4
333.15 K, 9830 kPa, Fluid (supercritical or subcritical phases), x2 = 0.902 | 579 ± 4
333.15 K, 9880 kPa, Fluid (supercritical or subcritical phases), x2 = 0.902 | 582 ± 4
333.15 K, 9920 kPa, Fluid (supercritical or subcritical phases), x2 = 0.902 | 585 ± 4
333.15 K, 9990 kPa, Fluid (supercritical or subcritical phases), x2 = 0.902 | 590 ± 4
333.15 K, 10050 kPa, Fluid (supercritical or subcritical phases), x2 = 0.902 | 594 ± 4
333.15 K, 10100 kPa, Fluid (supercritical or subcritical phases), x2 = 0.902 | 599 ± 4
333.15 K, 10180 kPa, Fluid (supercritical or subcritical phases), x2 = 0.902 | 603 ± 4
333.15 K, 10250 kPa, Fluid (supercritical or subcritical phases), x2 = 0.902 | 607 ± 4
333.15 K, 10320 kPa, Fluid (supercritical or subcritical phases), x2 = 0.902 | 610 ± 4
333.15 K, 10380 kPa, Fluid (supercritical or subcritical phases), x2 = 0.902 | 614 ± 4
333.15 K, 10500 kPa, Fluid (supercritical or subcritical phases), x2 = 0.902 | 619 ± 4
333.15 K, 10610 kPa, Fluid (supercritical or subcritical phases), x2 = 0.902 | 626 ± 4
333.15 K, 10750 kPa, Fluid (supercritical or subcritical phases), x2 = 0.902 | 631 ± 4
333.15 K, 10850 kPa, Fluid (supercritical or subcritical phases), x2 = 0.902 | 636 ± 4
333.15 K, 10920 kPa, Fluid (supercritical or subcritical phases), x2 = 0.902 | 641 ± 4
333.15 K, 11080 kPa, Fluid (supercritical or subcritical phases), x2 = 0.902 | 646 ± 4
333.15 K, 11170 kPa, Fluid (supercritical or subcritical phases), x2 = 0.902 | 650 ± 4
333.15 K, 11280 kPa, Fluid (supercritical or subcritical phases), x2 = 0.902 | 654 ± 4
333.15 K, 11490 kPa, Fluid (supercritical or subcritical phases), x2 = 0.902 | 660 ± 4
333.15 K, 11690 kPa, Fluid (supercritical or subcritical phases), x2 = 0.902 | 666 ± 4
333.15 K, 11820 kPa, Fluid (supercritical or subcritical phases), x2 = 0.902 | 671 ± 4
333.15 K, 12000 kPa, Fluid (supercritical or subcritical phases), x2 = 0.902 | 676 ± 4
333.15 K, 12230 kPa, Fluid (supercritical or subcritical phases), x2 = 0.902 | 682 ± 4
333.15 K, 12390 kPa, Fluid (supercritical or subcritical phases), x2 = 0.902 | 687 ± 4
333.15 K, 12560 kPa, Fluid (supercritical or subcritical phases), x2 = 0.902 | 690 ± 4
333.15 K, 12840 kPa, Fluid (supercritical or subcritical phases), x2 = 0.902 | 697 ± 4
333.15 K, 13010 kPa, Fluid (supercritical or subcritical phases), x2 = 0.902 | 700 ± 4
333.15 K, 13280 kPa, Fluid (supercritical or subcritical phases), x2 = 0.902 | 705 ± 4
333.15 K, 13630 kPa, Fluid (supercritical or subcritical phases), x2 = 0.902 | 711 ± 4
333.15 K, 13800 kPa, Fluid (supercritical or subcritical phases), x2 = 0.902 | 716 ± 4
333.15 K, 13980 kPa, Fluid (supercritical or subcritical phases), x2 = 0.902 | 719 ± 4
333.15 K, 14280 kPa, Fluid (supercritical or subcritical phases), x2 = 0.902 | 723 ± 5
333.15 K, 14460 kPa, Fluid (supercritical or subcritical phases), x2 = 0.902 | 726 ± 5
333.15 K, 14830 kPa, Fluid (supercritical or subcritical phases), x2 = 0.902 | 733 ± 5
333.15 K, Liquid, Other PVT measurement, x2 = 0.902 | 570 ± 2
335.15 K, 9800 kPa, Fluid (supercritical or subcritical phases), x2 = 0.909 | 532 ± 3
335.15 K, 9820 kPa, Fluid (supercritical or subcritical phases), x2 = 0.909 | 535 ± 3
335.15 K, 9860 kPa, Fluid (supercritical or subcritical phases), x2 = 0.909 | 539 ± 3
335.15 K, 9900 kPa, Fluid (supercritical or subcritical phases), x2 = 0.909 | 543 ± 3
335.15 K, 9940 kPa, Fluid (supercritical or subcritical phases), x2 = 0.909 | 548 ± 3
335.15 K, 10000 kPa, Fluid (supercritical or subcritical phases), x2 = 0.909 | 551 ± 3
335.15 K, 10050 kPa, Fluid (supercritical or subcritical phases), x2 = 0.909 | 558 ± 4
335.15 K, 10100 kPa, Fluid (supercritical or subcritical phases), x2 = 0.909 | 562 ± 4
335.15 K, 10160 kPa, Fluid (supercritical or subcritical phases), x2 = 0.909 | 567 ± 4
335.15 K, 10220 kPa, Fluid (supercritical or subcritical phases), x2 = 0.909 | 572 ± 4
335.15 K, 10280 kPa, Fluid (supercritical or subcritical phases), x2 = 0.909 | 578 ± 4
